{
  "source": "patent US12612644B2",
  "about": "“Scalable method for recombinant AAV production” (REGENXBIO Inc., priority 2018, dated 2026)",
  "key": {"[1]": {"system": "HEK293 cells expressing AAV8 particles", "experiment": "Large scale (50 liter) rAAV production using NaCl enhancer (Example 3)", "format": "cell-based, human", "conditions": "50 liter culture; NaCl increased by 60 mM 24 hours post transfection", "protocol": "The effect of NaCl on rAAV yield was tested in 50 liter cultures of HEK293 cells expressing AAV8 particles encapsidating a transgene. HEK suspension cultures were grown using standard processes. Cells were diluted to ˜4×10e6 viable cells. The medium used included 100 mM NaCl. Cells were transfected 24 hours post dilution with a mixture of polyethylenimine and 3 plasmids encoding adeno-virus helper functions, transgene and AAV […]. 24 hours post transfection, sufficient NaCl was added to increase the final NaCl concentration by 60 mM. (i.e., the final NaCl concentration was ˜160 mM). Supernatant was harvested on day 4 post transfection. The processes yielded 1×10e+11 genome copy (GC)/ml and 9×10e+10. This is ˜2-fold higher than the yield of the same process without the increase in NaCl concentration following transfection."}, "[2]": {"system": "HEK293 cells expressing rAAV9 particles", "experiment": "Effect of NaCl and/or sodium propionate on rAAV9 yield, microscale bioreactors (Example 5)", "format": "cell-based, human", "conditions": "effects of other conditions averaged", "protocol": "The effect of sodium chloride and sodium propionate (NaPr) (ThermoFisher Scientific) on rAAV yield in a suspension culture of HEK293 cells expressing rAAV9 particles encapsidating a transgene. HEK293 cells were seeded at 1×10e6 viable cell/ml density in advanced microscale bioreactors. The medium comprised 100 mM NaCl. At 48 hrs ECD (Elapsed Culture Duration), the cells were transfected with a mixture of polyethylenimine and 3 plasmids encoding adeno-virus helper functions, transgene and AAV 2/9 Rep/Cap. 4, 20, or 36 hours after transfection, NaCl, NaPr, anti-clump, EFC+, and/or Na valproate was added to the cultures. Conditions tested were 0, 30 mM and 60 mM NaCl, 0, 2 mM and 4 mM NaPr. Multiple conditions were tested using a Design of Experiment approach. The supernatant of the cultures was harvested at […], i.e., 5 days post-transfection. rAAV yields were obtained. […] Resulting titer improvement by adding NaCl and/or NaPr is shown in FIG. 3 where the effects of other tested conditions are averaged. […] The observed ˜2-fold increase is higher than what would be expected if the effect of NaPr and increased NaCl were additive."}, "[3]": {"system": "CHO cells", "conditions": "cited from earlier work"}, "[4]": {"system": "recombinant IgG production", "conditions": "alone; small culture conditions less than 50 L; cited from earlier work"}},
  "data": [
    {"smiles": "[Cl-].[Na+]", "note": "[NaCl, sodium chloride]", "values": [
      {"measurement": "yield relative to the same process without the increase in NaCl concentration", "setting": "[1]", "result": "~2", "unit": "fold"},
      {"measurement": "increase in the titer", "setting": "[2]; increased NaCl in the absence of sodium propionate", "result": "~1.2", "unit": "fold"}
    ]},
    {"smiles": "CCCC(=O)O", "note": "[butyric acid]", "values": [
      {"measurement": "cell growth", "setting": "[3]", "result": "inhibited cell growth"},
      {"measurement": "production of recombinant B-domain deleted factor VIII", "setting": "[3]", "result": "enhanced production"}
    ]},
    {"smiles": "CCC(=O)O", "note": "[propionic acid]", "values": [
      {"measurement": "production of recombinant B-domain deleted factor VIII", "setting": "[3]", "result": "enhanced production"}
    ]},
    {"smiles": "CCC(=O)[O-].[Na+]", "note": "[sodium propionate]", "values": [
      {"measurement": "increase in the titer", "setting": "[2]; 2 mM sodium propionate in the absence of increased NaCl", "result": "~1.5", "unit": "fold"},
      {"measurement": "effect on recombinant IgG production", "setting": "[4]", "result": "no strong effect alone"}
    ]}
  ]
}
